Source: patent US20090233796A1, “HERBICIDAL COMPOSITION” (SYNGENTA CROP PROTECTION, INC., priority 2004, published 2009)

Columns and labels:
Assay type in all cases: in vivo
C[…] = test: Compound (A) with S-metolachlor, weed plots; details: 1420 g/ha
Protocol: (§1) In these tests, various weeds were treated with S-metolachlor (SMOC) alone at an application rate equivalent to 1420 g per hectare, Compound (A) alone at rates equivalent to 20 g per hectare and […] and with mixtures of S-metolachlor and the Compound (A) at rates equivalent to the sum of these. The compositions were formulated as an emulsifyable concentrate (EC).
(§2) The results in the table under each application are the percentage of the plants that were killed.

POLYGONUM PENSYLVANICUM = test: Compound (A) with S-metolachlor, weed plots; details: 1420 g/ha; 56 DAA; Trial 4.14
Protocol: as §1, §2

AMBROSIA TRIFIDA = test: Compound (A) with S-metolachlor, weed plots; details: 1420 g/ha
Protocol: as §1, §2

SESBANIA EXALTATA = test: Compound (A) with S-metolachlor, weed plots; details: 1420 g/ha; 56 DAA; Trial 4.2
Protocol: as §1, §2

XANTHIUM STRUMARIUM = test: Compound (A) with S-metolachlor, weed plots; details: 1420 g/ha
Protocol: as §1, §2

E[…]-GALLI [1] = test: Compound (A) with S-metolachlor, weed plots; details: 1420 g/ha; 28 DAA; Trial 4.1
Protocol: as §1, §2

AMBROSIA ARTEMISIIFOLIA = test: Compound (A) with S-metolachlor, weed plots; details: 1420 g/ha
Protocol: as §1, §2

IPOMOEA SP. = test: Compound (A) with S-metolachlor, weed plots; details: 1420 g/ha
Protocol: as §1, §2

ABUTILON THEOPHRASTI = test: Compound (A) with S-metolachlor, weed plots; details: 1420 g/ha
Source text: […] The compositions were formulated as an emulsifyable concentrate (EC).
as §2

STELLARIA MEDIA = test: Compound (A) with triasulfuron, weed plots; details: 26 g per hectare; 30 DAA; No. 3.1
Protocol: In these tests, various weeds were treated with triasulfuron alone at a rate equivalent to 26 g per hectare, Compound (A) alone at a rate equivalent to 10 g per hectare, and to a mixture of triasulfuron and Compound (A) at rates equivalent to the sum of these. The compositions were formulated as an emulsifyable concentrate (EC).
as §2

SONCHUS ASPER = test: Compound (A) with paraquat, weed plots; details: 840 g/ha; 32 DAA; No. 1.10
Protocol: (§3) In these tests, various weeds were treated with paraquat alone at rates equivalent to 700 g per hectare and 840 g per hectare, compound (A) alone at rates equivalent to 10 g per hectare and 20 g per hectare, and with a mixture of paraquat and compound (A) at rates equivalent to the sum of these. The compositions were formulated as an emulsifyable concentrate (EC).
(§4) The results in the table under each application are the percentage of the weeds plants that were killed.

LAMIUM PURPUREUM = test: Compound (A) with paraquat, weed plots; details: 700 g/ha; 2 DAA; No. 1.5
Protocol: as §3, §4

SETARIA VIRIDIS = test: Compound (A) with paraquat, weed plots; details: 700 g/ha; 43 DAA; No. 1.3
Protocol: as §3, §4

SETARIA SP. = test: Compound (A) with paraquat, weed plots; details: 700 g/ha; 27 DAA; No. 1.2
Protocol: as §3, §4

VERONICA PERSICA = test: Compound (A) with paraquat, weed plots; details: 700 g/ha; 69 DAA; No. 1.6
Protocol: as §3, §4

CONYZA SP. = test: Compound (A) with paraquat, weed plots; details: 700 g/ha, 5 DAA
Protocol: as §3, §4

E[…]-GALLI [2] = test: Compound (A) with paraquat, weed plots; details: 700 g/ha; 51 DAA; No. 1.8
Protocol: as §3, §4

DIGITARIA CILIARIS = test: Compound (A) with paraquat, weed plots; details: 700 g/ha; 51 DAA; No. 1.7
Protocol: as §3, §4

LOLIUM RIGIDUM = test: Compound (A) with paraquat, weed plots; details: 700 g/ha; 41 DAA; No. 1.4
Protocol: as §3, §4

CYPERUS ROTUNDUS = test: Compound (A) with paraquat, weed plots; details: 840 g/ha; 56 DAA; No. 1.11
Protocol: as §3, §4

Compound: CCc1cccc(C)c1N(C(=O)CCl)[C@@H](C)COC [SMOC, S-metolachlor, reference compound]
- percentage of the plants that were killed (C[…]; 26 DAA, Trial 4.5): 0%
- percentage of the plants that were killed (C[…]; 54 DAA, Trial 4.6): 0%
- percentage of the plants that were killed (C[…]; 56 DAA, Trial 4.11): 0%
- percentage of the plants that were killed (POLYGONUM PENSYLVANICUM): 0%
- percentage of the plants that were killed (AMBROSIA TRIFIDA; 8 DAA, Trial 4.16): 25%
- percentage of the plants that were killed (AMBROSIA TRIFIDA; 42 DAA, Trial 4.15): 25%
- percentage of the plants that were killed (SESBANIA EXALTATA): 20%
- percentage of the plants that were killed (XANTHIUM STRUMARIUM; 26 DAA, Trial 4.17): 38%
- percentage of the plants that were killed (XANTHIUM STRUMARIUM; 42 DAA, Trial 4.18): 30%
- percentage of the plants that were killed (E[…]-GALLI [1]): 75%
- percentage of the plants that were killed (AMBROSIA ARTEMISIIFOLIA; 25 DAA, Trial 4.7): 30%
- percentage of the plants that were killed (AMBROSIA ARTEMISIIFOLIA; 49 DAA, Trial 4.8): 30%
- percentage of the plants that were killed (IPOMOEA SP.; 25 DAA, Trial 4.9): 0%
- percentage of the plants that were killed (IPOMOEA SP.; 49 DAA, Trial 4.10): 0%
- percentage of the plants that were killed (ABUTILON THEOPHRASTI; 15 DAA, Trial 4.12): 65%
- percentage of the plants that were killed (ABUTILON THEOPHRASTI; 23 DAA, Trial 4.3): 13%
- percentage of the plants that were killed (ABUTILON THEOPHRASTI; 38 DAA, Trial 4.4): 0%
- percentage of the plants that were killed (ABUTILON THEOPHRASTI; 56 DAA, Trial 4.13): 0%

Compound: COc1nc(C)nc(NC(=O)NS(=O)(=O)c2ccccc2OCCCl)n1 [Triasulfuron, triasulfuron, reference compound]
- percentage of the plants that were killed (STELLARIA MEDIA): 25%

Compound: C[n+]1ccc(-c2cc[n+](C)cc2)cc1 [paraquat, reference compound]
- percentage of the weeds plants that were killed (SONCHUS ASPER): 0%
- percentage of the weeds plants that were killed (LAMIUM PURPUREUM): 53%
- percentage of the weeds plants that were killed (SETARIA VIRIDIS): 0%
- percentage of the weeds plants that were killed (SETARIA SP.): 0%
- percentage of the weeds plants that were killed (VERONICA PERSICA): 25%
- percentage of the weeds plants that were killed (CONYZA SP.; No. 1.1): 2%
- percentage of the weeds plants that were killed (CONYZA SP.; No. 1.9): 2%
- percentage of the weeds plants that were killed (E[…]-GALLI [2]): 0%
- percentage of the weeds plants that were killed (DIGITARIA CILIARIS): 0%
- percentage of the weeds plants that were killed (LOLIUM RIGIDUM): 53%
- percentage of the weeds plants that were killed (CYPERUS ROTUNDUS): 65%
